Results reported in patent US11034970B2, “Production of protein from hairy roots of a Brassicaceae plant utilizing rhizobium comprising rol genes” (UNIVERSITE DE PICARDIE JULES VERNE, priority 2015, dated 2021).
Several values for one entry are separate records, joined by “and”; a condition that tells them apart may be missing. Equal values may be shown once.

Experiments:
Assay type in all cases: cell-based, Brassica rapa
[1] = tested on: hairy roots of the clone LG5; test: Human gastric lipase activity in the liquid culture medium (4-methylumbelliferyl oleate substrate); settings: 2,4-D 1 mg/l
Protocol: For this study, a subculture was carried out in six empty Erlenmeyer flasks, to which 1 g of biomass of the same mass of roots of the clone LG5 and 100 ml of liquid Gamborg B53 medium are added. The roots are cultured at 26° C. and under stirring at 110 rpm for two weeks.
In order to induce the development of lateral root emergences (LRE) in three Erlenmeyer flasks, this liquid medium is replaced with fresh B53 culture medium containing 2,4-dichlorophenoxyacetic acid (2,4-D) at 1 mg/l.
In the other three Erlenmeyer flasks having conventional hairy roots (HR), it is replaced with fresh B53 liquid culture medium, without 2,4-D.
After culture for two weeks at 26° C. with stirring at 110 rpm, a second change of medium was carried out in the flasks in an identical manner, in order to replace the culture medium with a fresh culture medium with +/−2,4-D at 1 mg/l.
The activity of the human gastric lipase is measured directly from the liquid culture media in the 6 flasks (14 days and 28 days after induction). The enzymatic activity is measured at 37° C. using 4-methylumbelliferyl oleate (0.1 mM) as substrate. The fluorescence of the 4-methylumbelliferone (MU), product of the enzyme reaction by the gastric lipase, is measured with a fluorometer (Excitation: 330 nm; Emission: 450 nm). This fluorescence is correlated to the human gastric lipase activity (FIG. 11).

[2] = tested on: hairy roots of the clone 2M1; test: Induction of lateral root emergences on hairy roots, morphology; settings: 2,4-D 0.5 mg/l in B53 medium, during the following 7 days
Protocol: (§1) In order to modify the morphology of the hairy roots and prevent the development of the root hairs, roots of the clone 2M1 producing GFP were cultured in B53 liquid medium for two weeks. This culture medium was then removed and replaced with fresh B53 medium containing 2,4-dichlorophenoxyacetic acid (2,4-D), an auxin-type hormone, at 0.5 mg/l.
In order to characterize these conical structures or “lateral root emergences” developing on the roots after hormonal induction, longitudinal sections (FIG. 3) and cross sections (FIG. 4) were produced in the control hairy roots after culture for 2 weeks in B53 medium and in hairy roots having lateral root emergences after culture for 2 weeks in B53 medium with 2,4-D auxin added.
The tissues were fixed in 4% p-formaldehyde overnight at 4° C., dehydrated in baths of ethanol of increasing concentrations, then enclosed in LR White resin. Sections with a thickness of 0.5 to 1 μm were produced using a Leica RM2265 microtome, stained with toluidine blue and observed using a Nikon Eclipse 90i microscope. The images were obtained using a Nikon Digital Sight DS-5Mc device, in visible light or in fluorescence to locate the GFP.

[3] = tested on: hairy roots of the clone 2M1; test: Test 3: GFP concentration in the culture medium after culture for 21 days (Petri dishes); settings: 2,4-D 1 mg/l
Protocol: (§2) For the quantification of 6× His-EGFP, culture medium was diluted to 20× or 40× in a 50 mM tris buffer at pH 7.5. The fluorescence of the solution was measured using the BioRad VersaFluor™ fluorometer (excitation filter 485-495 nm; emission filter 505-515 nm). The calibration of the fluorometer was carried out using the commercially available recombinant 6× His-EGFP (BioVision) at a concentration of 10 mg/l.
Roots of the clone 2M1 were inoculated in 14 Petri dishes, each containing 5 ml of liquid B53 culture medium. They were cultured at 26° C. under stirring at 110 rpm for 17 days.
The medium was then changed in the Petri dishes as follows: • in seven Petri dishes, the medium was removed and replaced with fresh B53 culture medium with 2,4-D added at 1 mg/l (LRE 1 to 7) in order to induce the development of lateral root emergences in these dishes; • and in the other seven Petri dishes, the medium was removed and replaced with fresh B53 culture medium (Controls 1 to 7).
The roots were maintained at 26° C. under stirring at 110 rpm for 21 days.

[4] = tested on: hairy roots of the clone 2M1; test: Test 1: quantification by fluorometry of GFP secreted in the culture medium (Petri dishes)
Protocol: as §1, §2
After culture of hairy roots of the clone 2M1 in B53 liquid medium for two weeks, this medium was replaced with fresh B53 medium containing 2,4-D auxin at 0.5 mg/l, in order to induce the development of lateral root emergences. The hairy roots of the clone 2M1 were thus cultured in Petri dishes containing 5 ml of B53 medium with 2,4-D added, at 23° C. and under stirring at 56 rpm.
The GFP secreted in the culture medium by the hairy roots having lateral root emergences, was quantified (10 repetitions) one and two weeks after the addition of 2,4-D auxin at 0.5 mg/l (Table 2).
Hairy roots of the clone 2M1 were cultured (9 repetitions) under the same conditions changing the B53 medium with fresh B53 medium but without the addition of auxin after culture for the first two weeks, in order to constitute control batches of hairy roots.

[5] = tested on: hairy roots of the clone 2M1; test: Test 2: GFP secreted in the culture medium, Erlenmeyer flasks, two renewals of medium; settings: 2,4-D 1 mg/l, first change of medium
Protocol: as §2
The clone 2M1 was inoculated at t0 into 5 Erlenmeyer flasks at a rate of 2 g of fresh roots in 100 ml of B53 medium. After culture at 26° C. with a stirrer at 110 rpm for 15 days, the roots have reached a mass of 24.4 g+/−3.90.
A first change of medium was then carried out in each of the flasks as follows; • in two flasks, the B53 medium was replaced with fresh B53 medium in order to carry out two repetitions for the control hairy roots; • in three flasks, the B53 medium was replaced with B53 medium with 2,4-D added at 1 mg/l in order to carry out three repetitions for inducing the development of lateral root emergences;
The GFP secreted in the culture medium was quantified 7 to 14 days after this first change of medium.
A second change of medium was then carried out in these same flasks, in an identical manner:
in the two flasks of control hairy roots. the B53 medium was replaced with fresh B53 medium; […]

[6] = lateral root emergences (LRE), 37° C., 3 flasks

O=C(O)COc1ccc(Cl)cc1Cl [2,4-D, 2,4-dichlorophenoxyacetic acid]
activity of the human gastric lipase, times greater than conventional hairy roots (HR) ([1]; LRE versus HR): approximately 3 | activity of the human gastric lipase in the culture medium at 14 days [1, 6]: 16 ± 0.6 pmol/min | activity of the human gastric lipase in the culture medium at 28 days [1, 6]: 45 ± 0.3 pmol/min | morphology of the hairy roots after hormonal induction [2]: Numerous conical structures called “lateral root emergences” (LRE) then developed on the hairy roots | concentration of GFP in the medium after 21 days ([3]; 7 Petri dishes, roots with lateral root emergences): 597 mg/L | concentration of GFP in the medium, times greater than control hairy roots ([3]; after 21 days): 4.3 | GFP in the culture medium versus control hairy roots (Student's test) ([4]; 2,4-D 0.5 mg/l versus medium without 2,4-D): significant difference | GFP in the culture medium, 2 weeks after B53 + 2,4-D, average ([4]; average of 10 Petri dishes (n=10), 2,4-D 0.5 mg/l): 164 ± 10.3 mg/L and 164 mg/L | GFP in the culture medium, 1 week after B53 + 2,4-D, average ([4]; average of 10 Petri dishes, 2,4-D 0.5 mg/l): 52 mg/L | secretion of GFP versus control cultures after treatment for 14 days [5]: doubled
